Reference: the NIST ThermoML archive (doi:10.1016/j.jct.2013.05.031)
± gives the expanded uncertainty stated by the source.

Details: for surface tension liquid-gas: Capillary rise; for viscosity / mass density: 101.33 kPa, Liquid; for viscosity: Capillary tube (Ostwald / Ubbelohde) method; for mass density: Pycnometric method

CCCCCCCC[N+](CC)(CC)CC.O=S(=O)([N-]S(=O)(=O)C(F)(F)F)C(F)(F)F [triethyloctylammonium bis[(trifluoromethyl)sulfonyl]imide]
Details	mass density [kg/m3]	surface tension liquid-gas [mN/m]	viscosity [mPa·s]
298 K	1251.2 ± 2.1	33.1 ± 0.5	221.4 ± 16
303 K	1247.2 ± 2.1	32.8 ± 0.5	163.9 ± 12
308 K	1242.9 ± 2.1	32.3 ± 0.5	124.7 ± 8.6
313 K	1239.4 ± 2.1	31.8 ± 0.5	96.76 ± 6.3
318 K	1235.2 ± 2.1	31.4 ± 0.5	76.47 ± 4.8
323 K	1231.3 ± 2.1	31 ± 0.5	60.52 ± 3.7
328 K	1227.5 ± 2.1	30.6 ± 0.5	48.63 ± 2.9
333 K	1223.2 ± 2.1	30.1 ± 0.5	39.85 ± 2.3
338 K	1219 ± 2	29.7 ± 0.5	33.2 ± 1.8
343 K	1216 ± 2	29.3 ± 0.5	28.23 ± 1.5
348 K	1212.9 ± 2.1	28.9 ± 0.5	23.8 ± 1.3
353 K	1207.8 ± 2.2	28.6 ± 0.5	20.36 ± 1
358 K	1203.5 ± 2.1	28.1 ± 0.5	17.83 ± 0.89
363 K	1200.2 ± 2.1	27.7 ± 0.5	15.55 ± 0.77
368 K	1196 ± 2.1	27.3 ± 0.5	13.5 ± 0.66
373 K	1192.3 ± 2.1	26.9 ± 0.5	12.05 ± 0.58

CCCCC[N+](CC)(CC)CC.O=S(=O)([N-]S(=O)(=O)C(F)(F)F)C(F)(F)F [triethylpentylammonium bis(trifluoromethylsulfonyl)imide]
Details	mass density [kg/m3]	surface tension liquid-gas [mN/m]	viscosity [mPa·s]
298 K	1321.5 ± 2.2	35.7 ± 0.5	161.6 ± 11
303 K	1317.4 ± 2.2	35.4 ± 0.5	121.4 ± 8.7
308 K	1313.2 ± 2.2	35 ± 0.5	92.11 ± 6.3
313 K	1308.9 ± 2.2	34.7 ± 0.5	71.86 ± 4.6
318 K	1304.9 ± 2.2	34.3 ± 0.5	57.52 ± 3.5
323 K	1301 ± 2.2	34 ± 0.5	46.74 ± 2.8
328 K	1296.6 ± 2.2	33.6 ± 0.5	37.78 ± 2.2
333 K	1293.1 ± 2.2	33.3 ± 0.5	31.43 ± 1.7
338 K	1289.1 ± 2.2	32.9 ± 0.5	26.57 ± 1.4
343 K	1284.7 ± 2.2	32.6 ± 0.5	22.47 ± 1.2
348 K	1280.9 ± 2.2	32.2 ± 0.5	19.27 ± 0.99
353 K	1277.3 ± 2.2	31.8 ± 0.5	16.71 ± 0.82
358 K	1272.9 ± 2.3	31.5 ± 0.5	14.79 ± 0.73
363 K	1268.6 ± 2.2	31.1 ± 0.5	12.87 ± 0.63
368 K	1265.1 ± 2.2	30.7 ± 0.5	11.5 ± 0.55
373 K	1260.7 ± 2.3	30.4 ± 0.5	10.17 ± 0.49
